Data taken from patent US9809602B2, “Compounds for treating viral infections” (INSTITUT PASTEUR KOREA, priority 2014, dated 2017).

Tested on: genotype 1/2 chimeric cell culture derived HCV (HCVcc)
Experiment: Genotype 1/2 chimeric HCVcc assay (nano-luciferase, HCV replication)
Format: cell-based
How it was run: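 EC50 (replication, nano-luciferase) and CC50 (viability, cellular ATP) were determined by non-linear regression 72 h after infection with a reporter HCVcc chimera carrying genotype 1a structural and 2a JFH-1 non-structural proteins. Compound was applied to Huh-7.5 cells 2 h before inoculation.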

[1] = Hepatitis C virus, Huh7.5, 72 h

Row | Structure (SMILES) | EC50 [1] | EC50 (Anti-HCVcc genotype 1/2 activity, Huh-7.5 cells, 72 h post infection, nano-luciferase)
1 | CC(C)(C)OC(=O)c1c(NC(=O)NCc2c(-c3ccc(F)cc3Cl)sc3c2CCNC3)sc2c1CCCC2 [Compound 286] | 100 to 1000 nM | 
2 | CC(C)(C)OC(=O)c1c(NC(=O)NCc2c(-c3ccc(Cl)c(Cl)c3)sc3c2CCNC3)sc2c1CCCC2 [Compound 287] | 100 to 1000 nM | 
3 | CCc1sc2c(c1CNC(=O)Nc1sc(C)c(C)c1C(=O)OC(C)(C)C)CCNC2 [Compound 288] | < 100 nM | 
4 | CCc1sc2c(c1CNC(=O)Nc1sc3c(c1C(=O)OC(C)(C)C)CCC(C)C3)CCNC2 (centres unmarked) [Compound 289] | < 100 nM | 
5 | CC1CCCc2sc(NC(=O)NCc3c(Br)sc4c3CCNC4)c(C(=O)OC(C)(C)C)c21 (centres unmarked) [Compound 290] | < 100 nM | 
6 | CC1CCCc2sc(NC(=O)NCc3c(-n4cccc4)sc4c3CCN(C)C4)c(C(=O)OC(C)(C)C)c21 (centres unmarked) [Compound 291] | < 100 nM | 
7 | CCN1CCc2c(sc(-n3cccc3)c2CNC(=O)Nc2sc3c(c2C(=O)OC(C)(C)C)C(C)CCC3)C1 (centres unmarked) [Compound 292] | < 100 nM | 
8 | CC1Cc2c(sc(NC(=O)NCc3c(-n4cccc4)sc4c3CCN(C)C4)c2C(=O)OC(C)(C)C)C(C)C1 (centres unmarked) [Compound 293] | < 100 nM | 
9 | CCN1CCc2c(sc(-n3cccc3)c2CNC(=O)Nc2sc3c(c2C(=O)OC(C)(C)C)CC(C)CC3C)C1 (centres unmarked) [Compound 294] | < 100 nM | 
10 | Cc1sc(NC(=O)NCc2c(C(F)(F)F)sc3c2CCN(C)C3)c(C(=O)OC(C)C)c1C [Compound 295] | < 100 nM | 
11 | CCN1CCc2c(sc(C(F)(F)F)c2CNC(=O)Nc2sc(C)c(C)c2C(=O)OC(C)C)C1 [Compound 296] | < 100 nM | 
12 | Cc1sc(NC(=O)NCc2c(Br)sc3c2CCN(C)C3)c(C(=O)OC(C)C)c1C [Compound 297] | < 100 nM | 
13 | CN1CCc2c(sc(-n3cccc3)c2CNC(=O)Nc2sc3c(c2C(=O)OC(C)(C)C)CCC3)C1 [Compound 298] | < 100 nM | 
14 | CN1CCc2c(sc(Br)c2CNC(=O)Nc2sc3c(c2C(=O)OC(C)(C)C)CCC3)C1 [Compound 299] | < 100 nM | 
15 | CCN1CCc2c(sc(Br)c2CNC(=O)Nc2sc3c(c2C(=O)OC(C)(C)C)CCC3)C1 [Compound 300] | < 100 nM | 
16 | CN1CCc2c(sc(-n3cccc3)c2CNC(=O)Nc2sc3c(c2C(=O)OC(C)(C)C)CCCCC3)C1 [Compound 301] | < 100 nM | 
17 | CC(C)(C)OC(=O)c1c(NC(=O)NCc2c(-n3cccc3)sc3c2CCNC3)sc2c1CCCCC2 [Compound 302] | < 100 nM | 
18 | CCN1CCc2c(sc(C(F)(F)F)c2CNC(=O)Nc2sc3c(c2C(=O)OC(C)(C)C)CCCCC3)C1 [Compound 303] | < 100 nM | 
19 | Cc1noc(-c2c(NC(=O)NCc3c(-n4cccc4)sc4c3CCNC4)sc3c2CCCC3)n1 [Compound 304] | 100 to 1000 nM | 
20 | CCOC(=O)c1c(NC(=O)NCc2c(C(F)(F)F)sc3c2CCN(C(=O)CN)C3)sc2c1CCCC2 [Compound 305] | < 100 nM | 
21 | CC(C)(C)OC(=O)c1c(NC(=O)NCc2c(-c3ccc(Cl)nc3)sc3c2CCNC3)sc2c1CCCC2 [Compound 307] | < 100 nM | 
22 | CC(C)(C)OC(=O)c1c(NC(=O)NCc2c(-c3ccnc(Cl)c3)sc3c2CCNC3)sc2c1CCCC2 [Compound 308] | < 100 nM | 
23 | CC(C)(C)OC(=O)c1c(NC(=O)NCc2c(-c3ccc(F)nc3)sc3c2CCNC3)sc2c1CCCC2 [Compound 309] | < 100 nM | 
24 | CC(C)(C)OC(=O)c1c(NC(=O)NCc2c(-c3ccnc(F)c3)sc3c2CCNC3)sc2c1CCCC2 [Compound 310] | < 100 nM | 

Row | Structure (SMILES) | EC50 [1] | EC50 (Anti-HCVcc genotype 1/2 activity, Huh-7.5 cells, 72 h post infection, nano-luciferase)
25 | CC(C)(C)OC(=O)c1c(NC(=O)NCc2c(C(F)(F)F)sc3c2CCNC3)sc2c1CCC1(C2)OCCO1 [Compound 311] | < 100 nM | 
26 | CCc1sc2c(c1CNC(=O)Nc1sc3c(c1C(=O)OC(C)(C)C)CCCCC3)CCNC2 [Compound 312] | < 100 nM | 
27 | CCc1sc2c(c1CNC(=O)Nc1sc3c(c1C(=O)OC1CCCC1)CCCC3)CCNC2 [Compound 313] | < 100 nM | 
28 | CCc1sc2c(c1CNC(=O)Nc1sc3c(c1C(=O)OC(C)(C)C)CCC3)CCNC2 [Compound 314] | < 100 nM | 
29 | CCOC(=O)c1c(NC(=O)NCc2c(C(F)(F)F)sc3c2CCN(C(=O)C(C)N)C3)sc2c1CCCC2 (centres unmarked) [Compound 315] | < 100 nM | 
30 | CCOC(=O)c1c(NC(=O)NCc2c(C(F)(F)F)sc3c2CCN(CCN(C)C)C3)sc2c1CCCC2 [Compound 316] | < 100 nM | 
31 | CCc1sc(NC(=O)NCc2c(-n3cccc3)sc3c2CCNC3)c(C(=O)OC(C)(C)C)c1C [Compound 318] | 100 to 1000 nM | 
32 | CC(C)(C)OC(=O)c1c(NC(=O)NCc2c(-n3cccc3)sc3c2CCNC3)sc2c1CCOC2 [Compound 319] | < 100 nM | 
33 | CC(C)(C)OC(=O)c1c(NC(=O)NCc2c(C(F)(F)F)sc3c2CCNC3)sc2c1CCOC2O (centres unmarked) [Compound 320] | < 100 nM | 
34 | CC(C)(C)OC(=O)c1c(NC(=O)NCc2c(-c3ccc(C(=O)O)cc3F)sc3c2CCNC3)sc2c1CCCC2 [Compound 321] | 1000 to 10000 nM | 
35 | Cc1cncc(-c2sc3c(c2CNC(=O)Nc2sc4c(c2C(=O)OC(C)(C)C)CCCC4)CCNC3)c1 [Compound 322] | 100 to 1000 nM | 
36 | CC(C)(C)OC(=O)c1c(NC(=O)NCc2c(-c3cnc(Sc4ccccc4)nc3)sc3c2CCNC3)sc2c1CCCC2 [Compound 323] | 100 to 1000 nM | 
37 | C=CCN1CCc2c(sc(-n3cccc3)c2CNC(=O)Nc2sc3c(c2C(=O)OC(C)(C)C)CCCC3)C1 [Compound 324] | < 100 nM | 
38 | C#CCN1CCc2c(sc(-n3cccc3)c2CNC(=O)Nc2sc3c(c2C(=O)OC(C)(C)C)CCCC3)C1 [Compound 325] | < 100 nM | 
39 | O=C(NCc1c(C(F)(F)F)sc2c1CCNC2)Nc1sc2c(c1C(=O)OC1CCOC1)CCCC2 (centres unmarked) [Compound 326] | < 100 nM | 
40 | CCOC(=O)c1c(NC(=O)NCc2c(C(F)(F)F)sc3c2CCN(C(=O)[C@H](C)N)C3)sc2c1CCCC2 [Compound 327] | < 100 nM | 
41 | CCOC(=O)c1c(NC(=O)NCc2c(C(F)(F)F)sc3c2CCN(C(=O)[C@H](C)N)C3)sc2c1CCCC2 [Compound 328] |  | < 100 nM
42 | O=C(NCc1c(C(F)(F)F)sc2c1CCNC2)Nc1sc2c(c1C(=O)OCC(F)(F)F)CCCC2 [Compound 329] | < 100 nM | 
43 | O=C(NCc1c(C(F)(F)F)sc2c1CCNC2)Nc1sc2c(c1C(=O)OC1CCOCC1)CCCC2 [Compound 330] | < 100 nM | 
44 | CC(C)(C)OC(=O)c1c(NC(=O)NCc2c(-c3ccoc3)sc3c2CCNC3)sc2c1CCOC2 [Compound 331] | < 100 nM | 
45 | Cc1sc(NC(=O)NCc2c(-c3ccoc3)sc3c2CCNC3)c(C(=O)OC(C)(C)C)c1C [Compound 332] | < 100 nM | 
46 | CCc1sc2c(c1CNC(=O)Nc1sc3c(c1C(=O)OC(C)(C)C)CCOC3)CCNC2 [Compound 333] | < 100 nM | 
47 | CC(C)(C)OC(=O)c1c(NC(=O)NCc2c(-n3cccc3)sc3c2CCN(C2CC2)C3)sc2c1CCCC2 [Compound 334] | < 100 nM | 
48 | CC(C)(C)OC(=O)c1c(NC(=O)NCc2c(C(F)(F)F)sc3c2CCNC3)sc2c1CCOC2F (centres unmarked) [Compound 335] | < 100 nM | 

Row | Structure (SMILES) | EC50 [1] | EC50 (Anti-HCVcc genotype 1/2 activity, Huh-7.5 cells, 72 h post infection, nano-luciferase)
49 | O=C(NCc1c(C(F)(F)F)sc2c1CCNC2)Nc1sc2c(c1C(=O)OC1CCOC1)CCOC2 (centres unmarked) [Compound 336] | < 100 nM | 
50 | O=C(NCc1c(-c2ccoc2)sc2c1CCNC2)Nc1sc2c(c1C(=O)OC1CCOC1)CCOC2 (centres unmarked) [Compound 337] | < 100 nM | 
51 | CCOC(=O)c1c(NC(=O)NCc2c(-c3ccco3)sc3c2CCNC3)sc2c1CCCC2 [Compound 338] | < 100 nM | 
52 | CCOC(=O)c1c(NC(=O)NCc2c(-c3ccoc3)sc3c2CCNC3)sc2c1CCCC2 [Compound 339] | < 100 nM | 
53 | CC(C)(C)OC(=O)c1c(NC(=O)NCc2c(-c3ccco3)sc3c2CCNC3)sc2c1CCCC2 [Compound 340] | < 100 nM | 
54 | CCOC(=O)c1c(NC(=O)NCc2c(C(F)(F)F)sc3c2CCN(C(=N)N)C3)sc2c1CCCC2 [Compound 341] | < 100 nM | 
55 | O=C(NCc1c(-c2ccco2)sc2c1CCNC2)Nc1sc2c(c1C(=O)OC1CCOC1)CCCC2 (centres unmarked) [Compound 342] | < 100 nM | 
56 | CC(C)(C)OC(=O)c1ccsc1NC(=O)NCc1c(C(F)(F)F)sc2c1CCNC2 [Compound 343] | 100 to 1000 nM | 
57 | O=C(NCc1c(-c2ccoc2)sc2c1CCNC2)Nc1sc2c(c1C(=O)OC1CCCC1)CCCC2 [Compound 344] | < 100 nM | 
58 | CCOC(=O)c1c(NC(=O)NCc2c(C(F)(F)F)sc3c2CCN(C(=O)[C@@H](N)C(C)C)C3)sc2c1CCCC2 [Compound 345] | < 100 nM | 
59 | Cc1cc(C(=O)OC(C)(C)C)c(NC(=O)NCc2c(C(F)(F)F)sc3c2CCNC3)s1 [Compound 347] | < 100 nM | 
60 | CCOC(=O)c1c(NC(=O)NCc2c(C(F)(F)F)sc3c2CCNC3)sc2ccccc12 [Compound 348] | < 100 nM | 
61 | CC(C)(C)OC(=O)c1c(NC(=O)NCc2c(C(F)(F)F)sc3c2CCNC3)sc2c1CCC(O)C2 (centres unmarked) [Compound 349] | < 100 nM | 
62 | Cc1sc(NC(=O)NCc2c(C(F)(F)F)sc3c2CCNC3)c(C(=O)OC2CCOC2)c1C (centres unmarked) [Compound 350] | < 100 nM | 
63 | Cc1sc(NC(=O)NCc2c(-n3c(C)ccc3C)sc3c2CCNC3)c(C(=O)OC(C)(C)C)c1C [Compound 352] | 1000 to 10000 nM | 
64 | Cc1sc(NC(=O)NCc2c(-n3c(C)ccc3C)sc3c2CCNC3)c(C(=O)OC2CCOC2)c1C (centres unmarked) [Compound 353] | 1000 to 10000 nM | 
65 | CCc1cc(C(=O)OC(C)(C)C)c(NC(=O)NCc2c(C(F)(F)F)sc3c2CCNC3)s1 [Compound 354] | < 100 nM | 
66 | CN(C)CCN1CCc2c(sc(C(F)(F)F)c2CNC(=O)Nc2sc3c(c2C(=O)OC(C)(C)C)CCCC3)C1 [Compound 355] | < 100 nM | 
67 | CCc1sc(NC(=O)NCc2c(C(F)(F)F)sc3c2CCN(CCN(C)C)C3)c(C(=O)OC(C)(C)C)c1C [Compound 356] | < 100 nM | 
68 | Cc1sc(NC(=O)NCc2c(-c3cccc(Cl)c3)sc3c2CCNC3)c(C(=O)OC2CCOC2)c1C (centres unmarked) [Compound 357] | 100 to 1000 nM | 
69 | CN(C)CCN1CCc2c(sc(-c3cccc(Cl)c3)c2CNC(=O)Nc2sc3c(c2C(=O)OC(C)(C)C)CCCC3)C1 [Compound 358] | < 100 nM | 
70 | CN(C)CCN1CCc2c(sc(-c3cccc(F)c3)c2CNC(=O)Nc2sc3c(c2C(=O)OC(C)(C)C)CCCC3)C1 [Compound 359] | < 100 nM | 
71 | Cc1sc(NC(=O)C(=O)NCc2c(C(F)(F)F)sc3c2CCNC3)c(C(=O)OC(C)(C)C)c1C [Compound 360] | 100 to 1000 nM | 
